Measurements taken from PubChem BioAssay AID1919010 (Molecular Pharmacology Branch, DTP, NCI, 2023).

Test system: Hs578T complex spheroid growth, percent test/control
Experiment: Anticancer human tumor Hs578T cell line growth inhibition [AhR];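 also: luminescent viability signal as a proxy for spheroid growth; spheroids exposed to agents for one week after three days of growth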
Conditions: for IC50: curve of first compound; for viability, T/C: stronger effect = lower value
Summary of the method: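 Agents were dosed in half-log steps down from roughly clinical Cmax, or from 10 microM where Cmax was unknown, alone and with AhR antagonists. Read-out: percent test/control growth of tumor spheroids containing HUVEC and MSC stromal cells.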

[1] = second compound 0.1 µM, first compound 0.0316 µM
[2] = second compound 0.1 µM, first compound 0.1 µM
[3] = second compound 0.316 µM, first compound 0.0316 µM
[4] = second compound 0.316 µM, first compound 0.1 µM
[5] = second compound 1 µM, first compound 0.0316 µM
[6] = second compound 1 µM, first compound 0.1 µM
[7] = second compound 3.16 µM, first compound 0.0316 µM
[8] = second compound 3.16 µM, first compound 0.1 µM
[9] = second compound 10 µM, first compound 0.0316 µM
[10] = second compound 10 µM, first compound 0.1 µM
[11] = second compound 0.1 µM, first compound 0.316 µM
[12] = second compound 0.1 µM, first compound 1 µM
[13] = second compound 0.1 µM, first compound 3.16 µM
[14] = second compound 0.1 µM, first compound 10 µM
[15] = second compound 0.316 µM, first compound 0.316 µM
[16] = second compound 0.316 µM, first compound 1 µM
[17] = second compound 0.316 µM, first compound 3.16 µM
[18] = second compound 0.316 µM, first compound 10 µM
[19] = second compound 1 µM, first compound 0.316 µM
[20] = second compound 1 µM, first compound 1 µM
[21] = second compound 1 µM, first compound 3.16 µM
[22] = second compound 1 µM, first compound 10 µM
[23] = second compound 3.16 µM, first compound 0.316 µM
[24] = second compound 3.16 µM, first compound 1 µM
[25] = second compound 3.16 µM, first compound 3.16 µM
[26] = second compound 3.16 µM, first compound 10 µM
[27] = second compound 10 µM, first compound 0.316 µM
[28] = second compound 10 µM, first compound 1 µM
[29] = second compound 10 µM, first compound 3.16 µM
[30] = second compound 10 µM, first compound 10 µM

For `CC[C@@]1(O)C(=O)OCc2c1cc1n(c2=O)Cc2cc3c(CN(C)C)c(O)ccc3nc2-1` + Cc1ccccc1N=Nc1ccc(NC(=O)c2ccnn2C)c(C)c1, the IC50 (second compound 0.1 µM) was > 0.1 µM, the IC50 (second compound 0.316 µM) was > 0.1 µM and the IC50 (second compound 1 µM) was > 0.1 µM. For the same molecule, the IC50 (second compound 3.16 µM) was > 0.1 µM, the IC50 (second compound 10 µM) was 0.0765 µM and the viability, T/C (second compound 0.1 µM, first compound 0.000316 µM) was 101%. For the same molecule, the viability, T/C (second compound 0.1 µM, first compound 0.001 µM) was 106%, the viability, T/C (second compound 0.1 µM, first compound 0.00316 µM) was 89.4% and the viability, T/C (second compound 0.1 µM, first compound 0.01 µM) was 73.3%. The viability, T/C [1] was 69.1%, the viability, T/C [2] was 69.2% and the viability, T/C (second compound 0.316 µM, first compound 0.000316 µM) was 108%. For the same molecule, the viability, T/C (second compound 0.316 µM, first compound 0.001 µM) was 104%, the viability, T/C (second compound 0.316 µM, first compound 0.00316 µM) was 89.9% and the viability, T/C (second compound 0.316 µM, first compound 0.01 µM) was 80.7%. The viability, T/C [3] was 78.3%, the viability, T/C [4] was 68.3% and the viability, T/C (second compound 1 µM, first compound 0.000316 µM) was 99.2%. The viability, T/C (second compound 1 µM, first compound 0.001 µM) was 110%, the viability, T/C (second compound 1 µM, first compound 0.00316 µM) was 96% and the viability, T/C (second compound 1 µM, first compound 0.01 µM) was 79.8%. For the same molecule, the viability, T/C [5] was 71.7%, the viability, T/C [6] was 61.7% and the viability, T/C (second compound 3.16 µM, first compound 0.000316 µM) was 94.5%. The viability, T/C (second compound 3.16 µM, first compound 0.001 µM) was 90.8%, the viability, T/C (second compound 3.16 µM, first compound 0.00316 µM) was 83.1% and the viability, T/C (second compound 3.16 µM, first compound 0.01 µM) was 66.8%. The viability, T/C [7] was 63.4%, the viability, T/C [8] was 55.9% and the viability, T/C (second compound 10 µM, first compound 0.000316 µM) was 65.3%. For the same molecule, the viability, T/C (second compound 10 µM, first compound 0.001 µM) was 61.3%, the viability, T/C (second compound 10 µM, first compound 0.00316 µM) was 65.6% and the viability, T/C (second compound 10 µM, first compound 0.01 µM) was 59.6%. The viability, T/C [9] was 50.4% and the viability, T/C [10] was 50.1%.
With `COc1cc(C2c3cc4c(cc3C(OC3OC5COC(C)OC5C(O)C3O)C3COC(=O)C23)OCO4)cc(OC)c1O` (stereo not given) + Cc1ccccc1N=Nc1ccc(NC(=O)c2ccnn2C)c(C)c1 the IC50 (second compound 0.1 µM) was > 10 µM, the IC50 (second compound 0.316 µM) was > 10 µM and the IC50 (second compound 1 µM) was > 10 µM. For the same molecule, the IC50 (second compound 3.16 µM) was 8.99 µM, the IC50 (second compound 10 µM) was 5.16 µM and the viability, T/C [1] was 97.1%. The viability, T/C [2] was 96.1%, the viability, T/C [11] was 77.3% and the viability, T/C [12] was 72.8%. For the same molecule, the viability, T/C [13] was 79.5%, the viability, T/C [14] was 57.9% and the viability, T/C [3] was 101%. For the same molecule, the viability, T/C [4] was 103%, the viability, T/C [15] was 88.9% and the viability, T/C [16] was 83.1%. For the same molecule, the viability, T/C [17] was 72.2%, the viability, T/C [18] was 68.9% and the viability, T/C [5] was 92.6%. For the same molecule, the viability, T/C [6] was 86.4%, the viability, T/C [19] was 77.3% and the viability, T/C [20] was 73.9%. For the same molecule, the viability, T/C [21] was 66.3%, the viability, T/C [22] was 63.1% and the viability, T/C [7] was 81.2%. The viability, T/C [8] was 78.8%, the viability, T/C [23] was 76.9% and the viability, T/C [24] was 73.7%. For the same molecule, the viability, T/C [25] was 68.5%, the viability, T/C [26] was 48% and the viability, T/C [9] was 68.6%. The viability, T/C [10] was 68.1%, the viability, T/C [27] was 67.6% and the viability, T/C [28] was 57.6%. For the same molecule, the viability, T/C [29] was 54.4% and the viability, T/C [30] was 44.9%.
`Nc1ccn(C2OC(CO)C(O)C2(F)F)c(=O)n1` (stereo not given) + Cc1ccccc1N=Nc1ccc(NC(=O)c2ccnn2C)c(C)c1 was tested, and the IC50 (second compound 0.1 µM) was 4.31 µM, the IC50 (second compound 0.316 µM) was 3.74 µM and the IC50 (second compound 1 µM) was > 10 µM. The IC50 (second compound 3.16 µM) was < 0.0316 µM, the IC50 (second compound 10 µM) was < 0.0316 µM and the viability, T/C [1] was 55.6%. The viability, T/C [2] was 48.1%, the viability, T/C [11] was 52.5% and the viability, T/C [12] was 49.2%. The viability, T/C [13] was 54%, the viability, T/C [14] was 47.9% and the viability, T/C [3] was 54%. The viability, T/C [4] was 44.9%, the viability, T/C [15] was 53.9% and the viability, T/C [16] was 49.8%. It also gave a viability, T/C [17] of 49.9%, a viability, T/C [18] of 50% and a viability, T/C [5] of 61%. It also gave a viability, T/C [6] of 52%, a viability, T/C [19] of 49.1% and a viability, T/C [20] of 46.9%. For the same molecule, the viability, T/C [21] was 48.1%, the viability, T/C [22] was 56.8% and the viability, T/C [7] was 48.7%. It also gave a viability, T/C [8] of 47.3%, a viability, T/C [23] of 47.4% and a viability, T/C [24] of 47.9%. The viability, T/C [25] was 45.9%, the viability, T/C [26] was 44.6% and the viability, T/C [9] was 45.1%. For the same molecule, the viability, T/C [10] was 46.1%, the viability, T/C [27] was 35.6% and the viability, T/C [28] was 36.2%. It also gave a viability, T/C [29] of 37% and a viability, T/C [30] of 41.4%.
